From US9695155B2, “Herbicidal substituted pyrimidinyloxy benzene compounds” (E. I. DU PONT DE NEMOURS AND COMPANY, priority 2013, dated 2017)

Key:
barnyardgrass [1] = test: Test A preemergence; assay type: in vivo, Echinochloa crus-galli; settings: 1000 g ai/ha, 0 to 100 scale, 0 no effect, 100 complete control, approx. 10 days
Summary of the method: (§1)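 Scoring: eye-based comparison with untreated controls, 0 for no effect through 100 for complete control, at about day 10. Treatments: directed soil spray preemergence; foliar spray postemergence on 2–10 cm plants at the one- to two-leaf stage. Medium: loam soil with sand.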

wheat = test: Test A preemergence; assay type: in vivo, Triticum aestivum; settings: 1000 g ai/ha, 0 to 100 scale, 0 no effect, 100 complete control, approx. 10 days
Summary of the method: as §1

large (Lg) crabgrass [2] = test: Test A postemergence; assay type: in vivo, Digitaria sanguinalis; settings: 1000 g ai/ha, 0 to 100 scale, 0 no effect, 100 complete control
Summary of the method: as §1

pigweed = test: Test A postemergence; assay type: in vivo, Amaranthus retroflexus; settings: 1000 g ai/ha, 0 to 100 scale, 0 no effect, 100 complete control
Summary of the method: as §1

rice = test: Test B flooded paddy test; assay type: in vivo, Oryza sativa; settings: Flood, 250 g ai/ha; 0 to 100 scale where 0 is no effect and 100 is complete control
Summary of the method: (§2)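 Plants at 2-leaf stage; pots flooded to 3 cm above soil and compound applied directly into paddy water, depth held throughout. After 13 to 15 days in greenhouse, visual rating versus controls on 0 (no effect) to 100 (complete control) scale.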

sedge, umbrella = test: Test B flooded paddy test; assay type: in vivo, Cyperus difformis; settings: Flood, 250 g ai/ha; 0 to 100 scale where 0 is no effect and 100 is complete control
Summary of the method: as §2

blackgrass = test: Test C postemergence; assay type: in vivo, Alopecurus myosuroides; settings: for Plant response rating (0 to 100), Blackgrass: 0 is no effect, 100 is complete control
Summary of the method: (§3)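 Seeds were sown in loam–sand blend and sprayed preemergence, while plants at 1- to 4-leaf stage (2–18 cm) in peat-based medium received postemergence sprays; test chemicals were formulated in a non-phytotoxic solvent with surfactant. After 13–15 days in a greenhouse, injury was rated visually against controls, 0 (no effect) to 100 (complete control).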

Italian ryegrass = test: Test C postemergence; assay type: in vivo, Lolium multiflorum; settings: for Plant response rating (0 to 100), Ryegrass, Italian: 0 is no effect, 100 is complete control
Summary of the method: as §3

galium = test: Test C postemergence; assay type: in vivo, Galium aparine; settings: for Plant response rating (0 to 100), Galium: 0 is no effect, 100 is complete control
Summary of the method: as §3

large (Lg) crabgrass [3] = test: Test C postemergence; assay type: in vivo, Digitaria sanguinalis; settings: for Plant response rating (0 to 100), Crabgrass, Large: 0 is no effect, 100 is complete control
Summary of the method: as §3

lambsquarters = test: Test C postemergence; assay type: in vivo, Chenopodium album; settings: for Plant response rating (0 to 100), Lambsquarters: 0 is no effect, 100 is complete control
Summary of the method: as §3

yellow nutsedge = test: Test C postemergence; assay type: in vivo, Cyperus esculentus; settings: for Plant response rating (0 to 100), Nutsedge, Yellow: 0 is no effect, 100 is complete control
Summary of the method: as §3

ragweed = test: Test C postemergence; assay type: in vivo, Ambrosia elatior; settings: for Plant response rating (0 to 100), Ragweed: 0 is no effect, 100 is complete control
Summary of the method: as §3

soybean = test: Test C postemergence; assay type: in vivo, Glycine max; settings: for Plant response rating (0 to 100), Soybean: 0 is no effect, 100 is complete control
Summary of the method: as §3

barnyardgrass [4] = test: Test C postemergence; assay type: in vivo, Echinochloa crus-galli; settings: for Plant response rating (0 to 100), Barnyardgrass: 0 is no effect, 100 is complete control
Summary of the method: as §3

[5] = 31 g ai/ha, postemergence, visual rating, scale 0 to 100 (0 no effect, 100 complete control), 13 to 15 days
[6] = Postemergence, 62 g ai/ha, scale 0 to 100 (0 no effect, 100 complete control), 13 to 15 days

Clc1cnc(Oc2ccccc2-n2cc(I)nn2)nc1 [Compound 222]
Barnyardgrass plant response rating (barnyardgrass [1]): 100 | Wheat plant response rating (wheat): 70 | Plant response rating, Crabgrass, Large (large (Lg) crabgrass [2]): 100 | Plant response rating, Pigweed (pigweed): 100 | Plant response rating, Rice (rice): 0 | Plant response rating, Sedge, Umbrella (sedge, umbrella): 70 | Plant response rating (0 to 100), Blackgrass (blackgrass; 8 g ai/ha, postemergence): 0 | Plant response rating (0 to 100), Blackgrass (blackgrass; 16 g ai/ha, postemergence): 5 | Blackgrass plant response rating (blackgrass; [5]): 30 | Plant response rating, Blackgrass (blackgrass; [6]): 60 | Plant response rating (0 to 100), Ryegrass, Italian (Italian ryegrass; 8 g ai/ha, postemergence): 0 | Plant response rating (0 to 100), Ryegrass, Italian (Italian ryegrass; 16 g ai/ha, postemergence): 0 | Ryegrass, Italian plant response rating (Italian ryegrass; [5]): 0 | Plant response rating, Ryegrass, Italian (Italian ryegrass; [6]): 0 | Plant response rating (0 to 100), Galium (galium; 8 g ai/ha, postemergence): 65 | Plant response rating (0 to 100), Galium (galium; 16 g ai/ha, postemergence): 70 | Galium plant response rating (galium; [5]): 85 | Plant response rating, Galium (galium; [6]): 85 | Plant response rating (0 to 100), Crabgrass, Large (large (Lg) crabgrass [3]; 8 g ai/ha, postemergence): 5 | Plant response rating (0 to 100), Crabgrass, Large (large (Lg) crabgrass [3]; 16 g ai/ha, postemergence): 5 | Crabgrass, Large plant response rating (large (Lg) crabgrass [3]; [5]): 5 | Plant response rating, Crabgrass, Large (large (Lg) crabgrass [3]; [6]): 5 | Plant response rating (0 to 100), Lambsquarters (lambsquarters; 8 g ai/ha, postemergence): 50 | Plant response rating (0 to 100), Lambsquarters (lambsquarters; 16 g ai/ha, postemergence): 65 | Lambsquarters plant response rating (lambsquarters; [5]): 65 | Plant response rating, Lambsquarters (lambsquarters; [6]): 75 | Plant response rating (0 to 100), Nutsedge, Yellow (yellow nutsedge; 8 g ai/ha, postemergence): 0 | Plant response rating (0 to 100), Nutsedge, Yellow (yellow nutsedge; 16 g ai/ha, postemergence): 5 | Nutsedge, Yellow plant response rating (yellow nutsedge; [5]): 5 | Plant response rating, Nutsedge, Yellow (yellow nutsedge; [6]): 5 | Plant response rating (0 to 100), Ragweed (ragweed; 8 g ai/ha, postemergence): 20 | Plant response rating (0 to 100), Ragweed (ragweed; 16 g ai/ha, postemergence): 40 | Ragweed plant response rating (ragweed; [5]): 45 | Plant response rating, Ragweed (ragweed; [6]): 60 | Plant response rating (0 to 100), Soybean (soybean; 8 g ai/ha, postemergence): 40 | Plant response rating (0 to 100), Soybean (soybean; 16 g ai/ha, postemergence): 55 | Soybean plant response rating (soybean; [5]): 65 | Plant response rating, Soybean (soybean; [6]): 60 | Plant response rating (0 to 100), Barnyardgrass (barnyardgrass [4]; 8 g ai/ha, postemergence): 5 | Plant response rating (0 to 100), Barnyardgrass (barnyardgrass [4]; 16 g ai/ha, postemergence): 5 | Barnyardgrass plant response rating (barnyardgrass [4]; [5]): 10 | Plant response rating, Barnyardgrass (barnyardgrass [4]; Postemergence, 62 g ai/ha, scale 0 to 100 (0 no effect, 100 complete control)): 15
